Test results as given in US20250042925A1, “Improved Compositions and Methods for Targeting Mitochondria in Cancer Cells” (The Medical College of Wisconsin, Inc., priority 2021, published 2025).

Tests used:
[1] = test system: mitochondrial respiratory complex I; experiment: Complex I derived oxygen consumption in permeabilized cells; format: cell-based, murine; conditions: KPC1242 cell line, 24-hour treatment
Experimental: Cells were plated to Seahorse XF96 cell culture microplates at 20,000 cells/well. Stock compounds in DMSO were diluted in RPMI medium to a final concentration in […] volume, incubated at 37° C. for 24 hours, centrifuged at 200×g for 2 minutes, and conditioned medium removed and replaced with serum-free RPMI […]. Oxygen consumption (OCR) and extracellular flux (ECAR) were measured after injections of oligomycin (1 mg/mL), dinitrophenol […], rotenone […], and antimycin A […]. Analysis was performed by normalizing OCR and ECAR readouts to vehicle controls. Complex I and II activity were analyzed after permeabilization of the cells.

AsPC-1 cells = experiment: TMRE retention (mitochondrial depolarization) by flow cytometry in AsPC-1; format: cell-based, human; conditions: AsPC-1, 1 hour treatment
Experimental: AsPC-1 and HPSC cells were serum-starved overnight, loaded with tetramethylrhodamine ethyl ester (TMRE), and treated for 1 hour with the indicated concentrations of MMe or pCF3-MMe or, as the vehicle control, DMSO. Mitochondrial TMRE retention was measured by flow cytometry. Representative histograms of n=3 of TMRE fluorescence in AsPC-1 (FIG. 4A) and HPSC (FIG. 4B) in response to treatment. […] Total cellular ATP levels were analyzed using a luminescent ATP detection assay of KPC1242 cells treated with MMe (0.7 μM) or pCF3-MMe (3 μM), and changes in ATP levels were assayed (FIG. 4E). Representatives immunoblot analyses of phosphorylated and total AMPK levels (FIG. 4F) and densitometric quantification (FIG. 4G) in KPC1242 cells treated with MMe (0.7 μM) or pCF3-MMe (3 μM). […] Values are mean±SD from 3 biological replicates. Statistical differences in a, c, and e were determined using Student's t-test (*, p<0.05; **, p<0.01; ***, p<0.001, ns: not significant).
TPP-conjugated compounds are known to effectively target the mitochondria of cancer cells. Thus, the efficacy of pCF3-MMe to effectively target the mitochondria of cancer cells was tested and compared to normal cells using tetramethylrhodamine ethyl ester perchlorate (TMRE), a cell-permeant, positively-charged dye that accumulates in active mitochondria, and is released into the cytosol upon mitochondrial damage. […]

[2] = test system: AMP-Activated Protein Kinase (AMPK); experiment: Immunoblot of AMPK Thr172 phosphorylation; format: cell-based, murine; conditions: 0.7 μM MMe or 3 μM pCF3-MMe
Experimental: The functional consequence of inhibiting mitochondria complex I and subsequently OXPHOS is a reduction of overall ATP levels in the cell. The ability of MMe to reduce ATP levels was previously reported in numerous cancer cell types. Thus, further studies were conducted to explore if pCF3-MMe retained similar properties. […] Cells, including cancer cells, must maintain a high ATP:ADP ratio to maintain cellular functions and survival. Moreover, AMP levels rise whenever the ATP:ADP ratio decreases, and an increase in the AMP:ATP ratio signals an energetic crisis in the cell. […]
Cells were serum-starved for 24 hours followed by compound treatment for 24 hours before lysis in RIPA buffer composed of 50 mM Tris-HCl, pH 7.4, 150 mM NaCl, 0.25% v/v sodium deoxycholate, 1% v/v Nonidet P-40, 0.1% v/v SDS, 1 mM EDTA, 10 mM sodium orthovanadate, 40 mM 0-glycerol phosphate, 20 mM sodium fluoride, and protease inhibitors cocktail set III (Millipore Sigma, Cat #539134). […] Primary antibodies were detected by incubating with secondary horseradish peroxidase-conjugated antibody (Cytiva, Amersham ECL rabbit IgG-HRP, Cat #NA9340). Densitometric quantification of phosphorylated, total or actin protein levels was measured using chemiluminescence and calculated using Alpha View Software.

C57BL/6J mice = experiment: Tolerability in non-tumor-bearing mice; format: in vivo; conditions: for tolerability of repeated injection: daily for 5 consecutive days, 25 μg/mouse to 1 mg/mouse
Experimental: FIGS. 6A-6I show pCF3-MMe inhibits tumor growth with enhanced biosafety relative to MMe. C57BL/6J mice were treated with 1 mg MMe, 1 mg pCF3-MMe, 1 mg MMe, 250 μg MMe, 100 μg MMe, 50 μg MMe, or 25 μg MMe for 6 hours (FIG. 6A) or 5 days (FIG. 6D). Kaplan-Meier survival curve of mice treated for 6 hours (FIG. 6B) or 5 days […], n=3-5. Numbers of mice surviving over time after a single injection (FIG. 6C) or 5 repeated doses (FIG. 6F). Significance was determined using a Mantel-Cox test (*, p<0.05; **, p<0.01). KPC1242 murine pancreatic cancer engrafted mice were treated with 1 mg pCF3-MMe or vehicle 5 days on and 2 days off (FIG. 6G). Tumors isolated from vehicle and treated mice were pictured (FIG. 6H). Tumor volume was measured ex vivo from vehicle and pCF3-MMe-treated mice (FIG. 6I). Values are mean±SD. Significant differences were determined by Student's t-test (*, p<0.05).
With the ability to detect pCF3-MMe in vitro and in vivo in hand, along with anti-tumor properties and decreased toxicity towards non-transformed cells in culture, we next compared the tolerability of pCF3-MMe in mice. Non-tumor-bearing mice received an intraperitoneal injection with decreasing amounts (1 mg, 250 μg, 100 μg, 50 μg, or 25 μg) of unsubstituted MMe or pCF3-MMe. […] […].
Given the strong safety shown from a single injection, further studies were conducted to determine if mice tolerated repeated injection using our published treatment schedule by injecting non-tumor-bearing mice daily for 5 consecutive days with doses ranging from as little as 25 μg/mouse to as much as 1 mg/mouse […] (FIG. 6D). […] Since 1 mg/mouse pCF3-MMe was well tolerated in tumor-free animals, further studies were conducted to test if pCF3-MMe could inhibit tumor growth in vivo. Mice were implanted with murine cancer cells and injected 17 days after engraftment with 1 mg pCF3-MMe (FIG. 6G). […] Taken together, trifluoromethylation of TPP^+ improves the reproducible detection, quantitative measurement, and safety profile of TPP^+-conjugated compounds while retaining potent anti-tumor effects in vivo.

Row | Structure (SMILES) | complex I derived OCR [1] | TMRE accumulation within the mitochondria (AsPC-1 cells) | AMPK activation (Thr172 phosphorylation) [2] | tolerability of repeated injection (C57BL/6J mice) | tolerability after a single injection (C57BL/6J mice; single intraperitoneal injection, MMe 250 μg or 1 mg, metformin 1 mg) | mice surviving (C57BL/6J mice; single intraperitoneal injection of 1 mg) [%]
1 | N=C(N)NC(=N)NCCCCCCCCCC[P+](c1ccccc1)(c1ccccc1)c1ccccc1.[Br-] [MMe, 10-[(carbamimidamidomethanimidoyl)amino]decyl-triphenylphosphonium bromide, reference compound] | decreased complex I derived OCR | significantly reduced TMRE accumulation | significant increase in AMPK activation | succumbed to 4-fold lower doses | significant and rapid mortality | –
2 | N=C(N)NC(=N)NCCCCCCCCCC[P+](c1ccc(C(F)(F)F)cc1)(c1ccc(C(F)(F)F)cc1)c1ccc(C(F)(F)F)cc1.[Br-] [pCF3-MMe, (10-(3-carbamimidoylguanidino)decyl)tris(4-(trifluoromethyl)phenyl)phosphonium bromide] | decreased complex I derived OCR | significantly reduced TMRE accumulation | significant increase in AMPK activation | tolerated a 1 mg dose | – | 100
